Results taken from patent US20200369728A1, “PEPTIDOMIMETIC MACROCYCLES AND USES THEREOF” (Aileron Therapeutics, Inc., priority 2015, published 2020).
Bridge positions count the residues as written; N and C are the ends. Square brackets hold non-standard residues; d marks the D form. Peptide text beside a SMILES is read from it. Phe(4-COOH) = N[C@@H](Cc1ccc(C(=O)O)cc1)C(=O)O; R8 = C=CCCCCCC[C@@](C)(N)C(=O)O; Cba = N[C@@H](CC1CCC1)C(=O)O; S5 = C=CCCC[C@](C)(N)C(=O)O; Nle = CCCC[C@H](N)C(=O)O

Assays:
[1] = test system: Caspase 3; test: Caspase 3 detection assay in SJSA1 cells; format: cell-based; details: SJSA1, 48 h, Caspase 3 activation over DMSO-treated cells
[2] = test system: SJSA-1 cells; test: Cell lysis by peptidomimetic macrocycles (LDH release); format: cell-based; details: SJSA-1, 1 h
How it was run: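 SJSA-1 cells plated the day before, switched to RPMI with 1% FBS, then exposed 1 h at 37 °C to macrocycle at final 50 μM to 6.25 μM in 0.5% DMSO. LDH released into the supernatant was measured by kit. Controls: 0.5% DMSO (non-lytic), 10 μM melittin and 1% Triton X-100 (lytic).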

`CC(=O)N[C@@H](CC(C)C)C(=O)N[C@H](C(=O)N[C@@H](Cc1ccccc1)C(=O)N[C@]1(C)CCCCCCC=CCCC[C@@](C)(C(=O)N[C@@H](CO)C(=O)N[C@H](C(=O)NCC(N)=O)C(C)C)NC(=O)[C@H](CC(C)C)NC(=O)[C@H](CCC(N)=O)NC(=O)[C@H](C)NC(=O)[C@H](Cc2c[nH]c3ccccc23)NC(=O)[C@H](Cc2ccc(O)cc2)NC(=O)[C@H](C)NC1=O)[C@@H](C)O` [compound 123] (Ac-LTF[R8]AYWAQL[S5]SVG-NH2; staple 4-11) was tested, and the “caspase 0.3 μM” value [1] was 1, the “caspase 3 μM” value [1] was 1 and the “caspase 10 μM” value [1] was 6. The “caspase 30 μM” value [1] was 14, the “6.25 μM % Lysed cells (1 h LDH)” value [2] was −2% and the “25 μM % Lysed cells (1 h LDH)” value [2] was 5%. The “50 μM % Lysed cells (1 h LDH)” value [2] was 3%.

In the case of `CC(=O)N[C@@H](CCC(=O)O)C(=O)N[C@H](C(=O)N[C@@H](Cc1ccccc1)C(=O)N[C@]1(C)CCCCCCC=CCCC[C@@](C)(C(=O)N[C@@H](CO)C(=O)N[C@H](C(=O)N[C@@H](CO)C(N)=O)C(C)C)NC(=O)[C@H](CC(C)C)NC(=O)[C@H](CCC(N)=O)NC(=O)[C@H](C)NC(=O)[C@H](Cc2c[nH]c3ccccc23)NC(=O)[C@H](Cc2ccc(O)cc2)NC(=O)[C@H](C(C)C)NC1=O)[C@@H](C)O` [compound 130] (Ac-ETF[R8]VYWAQL[S5]SVS-NH2; staple 4-11), the “caspase 0.3 μM” value [1] is reported as 1, the “caspase 3 μM” value [1] is reported as 2 and the “caspase 10 μM” value [1] is reported as 6. For the same compound, the “caspase 30 μM” value [1] was 17, the “6.25 μM % Lysed cells (1 h LDH)” value [2] was 1% and the “25 μM % Lysed cells (1 h LDH)” value [2] was 0%. For the same compound, the “50 μM % Lysed cells (1 h LDH)” value [2] was −1%.

For `CCCC[C@H](NC(=O)[C@H](C)NC(=O)[C@H](C)NC(=O)[C@]1(C)CCCC=CCCCCCC[C@@](C)(NC(=O)[C@H](Cc2ccccc2)NC(=O)[C@@H](NC(=O)[C@H](CC(C)C)NC(C)=O)[C@@H](C)O)C(=O)N[C@@H](C)C(=O)N[C@@H](Cc2ccc(O)cc2)C(=O)N[C@@H](Cc2c[nH]c3ccccc23)C(=O)N[C@@H](C)C(=O)N[C@@H](C)C(=O)N[C@@H](CC(C)C)C(=O)N1)C(=O)N[C@@H](C(N)=O)C(C)C` (single isomer, unassigned) [compound 80], the “caspase 0.3 μM” value [1] was 1, the “caspase 3 μM” value [1] was 2 and the “caspase 10 μM” value [1] was 13. The “caspase 30 μM” value [1] was 20, the “6.25 μM % Lysed cells (1 h LDH)” value [2] was 0% and the “25 μM % Lysed cells (1 h LDH)” value [2] was 1%. For the same compound, the “50 μM % Lysed cells (1 h LDH)” value [2] was 5%.

With `CC(=O)N[C@@H](CC(C)C)C(=O)N[C@H](C(=O)N[C@@H](Cc1ccccc1)C(=O)N[C@]1(C)CCCCCCC=CCCC[C@@](C)(C(=O)N[C@@H](C)C(=O)N[C@@H](C)C(=O)N[C@@H](C)C(=O)N[C@@H](C)C(=O)N[C@@H](C)C(=O)N[C@@H](C)C(=O)N[C@H](C)C(N)=O)NC(=O)[C@H](CC(C)C)NC(=O)[C@H](CCC(N)=O)NC(=O)[C@H](C)NC(=O)[C@H](Cc2c[nH]c3ccccc23)NC(=O)[C@H](Cc2ccc(O)cc2)NC(=O)[C@H](CCC(=O)O)NC1=O)[C@@H](C)O` (single isomer, unassigned) [compound 343] the “caspase 0.3 μM” value [1] was 1, the “caspase 1 μM” value ([1]; 1 μM) was 1 and the “caspase 3 μM” value [1] was 2. For the same compound, the “caspase 10 μM” value [1] was 5, the “caspase 30 μM” value [1] was 29 and the “6.25 μM % Lysed cells (1 h LDH)” value [2] was 0%. The “25 μM % Lysed cells (1 h LDH)” value [2] was 0% and the “50 μM % Lysed cells (1 h LDH)” value [2] was 0%.

For `CC[C@H](C)[C@H](NC(=O)[C@H](C)NC(=O)[C@H](C)NC(=O)[C@]1(C)CCCC=CCCCCCC[C@@](C)(NC(=O)[C@H](Cc2ccccc2)NC(=O)[C@@H](NC(=O)[C@H](CC(C)C)NC(C)=O)[C@@H](C)O)C(=O)N[C@@H](CCC(=O)O)C(=O)N[C@@H](Cc2ccc(O)cc2)C(=O)N[C@@H](Cc2c[nH]c3ccccc23)C(=O)N[C@@H](C)C(=O)N[C@@H](CCC(N)=O)C(=O)N[C@@H](CC2CCC2)C(=O)N1)C(=O)N[C@H](C)C(N)=O` [compound 247] (Ac-LTF[R8]EYWAQ[Cba][S5]AAI[dA]-NH2; staple 4-11), the “caspase 0.3 μM” value [1] was 1, the “caspase 3 μM” value [1] was 3 and the “caspase 10 μM” value [1] was 11. For the same compound, the “caspase 30 μM” value [1] was 24, the “6.25 μM % Lysed cells (1 h LDH)” value [2] was 0% and the “25 μM % Lysed cells (1 h LDH)” value [2] was 0%. For the same compound, the “50 μM % Lysed cells (1 h LDH)” value [2] was 4%.

In the case of `CCCC[C@H](NC(=O)[C@H](C)NC(=O)[C@H](CO)NC(=O)[C@]1(C)CCCC=CCCCCCC[C@@](C)(NC(=O)[C@H](Cc2ccccc2)NC(=O)[C@@H](NC(=O)[C@H](CC(C)C)NC(C)=O)[C@@H](C)O)C(=O)N[C@@H](CCC(=O)O)C(=O)N[C@@H](Cc2ccc(C(=O)O)cc2)C(=O)N[C@@H](Cc2c[nH]c3ccccc23)C(=O)N[C@@H](C)C(=O)N[C@@H](CCC(N)=O)C(=O)N[C@@H](CC2CCC2)C(=O)N1)C(=O)N[C@@H](C)C(N)=O` [compound 244] (Ac-LTF[R8]E[Phe(4-COOH)]WAQ[Cba][S5]SA[Nle]A-NH2; staple 4-11), the “caspase 0.3 μM” value [1] is reported as 1, the “caspase 3 μM” value [1] is reported as 2 and the “caspase 10 μM” value [1] is reported as 7. For the same compound, the “caspase 30 μM” value [1] was 17, the “6.25 μM % Lysed cells (1 h LDH)” value [2] was 0% and the “25 μM % Lysed cells (1 h LDH)” value [2] was 0%. The “50 μM % Lysed cells (1 h LDH)” value [2] was 4%.

In the case of `CC(=O)N[C@@H](CC(C)C)C(=O)N[C@H](C(=O)N[C@@H](Cc1ccccc1)C(=O)N[C@]1(C)CCCCCCC=CCCC[C@@](C)(C(=O)N[C@@H](C)C(=O)N[C@@H](C)C(=O)N[C@@H](Cc2ccccc2)C(=O)N[C@H](C)C(N)=O)NC(=O)[C@H](CC(C)C)NC(=O)[C@H](CCC(N)=O)NC(=O)[C@H](C)NC(=O)[C@H](Cc2c[nH]c3ccccc23)NC(=O)[C@H](Cc2ccc(O)cc2)NC(=O)[C@H](CCC(=O)O)NC1=O)[C@@H](C)O` (single isomer, unassigned) [compound 218], the “caspase 0.3 μM” value [1] is reported as 1, the “caspase 3 μM” value [1] is reported as 2 and the “caspase 10 μM” value [1] is reported as 8. For the same compound, the “caspase 30 μM” value [1] was 18, the “6.25 μM % Lysed cells (1 h LDH)” value [2] was 0% and the “25 μM % Lysed cells (1 h LDH)” value [2] was −4%. For the same compound, the “50 μM % Lysed cells (1 h LDH)” value [2] was 1%.

For `CC(=O)N[C@@H](CC(C)C)C(=O)N[C@H](C(=O)N[C@@H](Cc1ccccc1)C(=O)N[C@]1(C)CCCCCCC=CCCC[C@@](C)(C(=O)N[C@@H](CO)C(=O)NC(C)(C)C(=O)N[C@@H](C)C(=O)N[C@@H](C)C(N)=O)NC(=O)[C@H](CC(C)C)NC(=O)[C@H](CCC(N)=O)NC(=O)[C@H](C)NC(=O)[C@H](Cc2c[nH]c3ccccc23)NC(=O)[C@H](Cc2ccc(O)cc2)NC(=O)[C@H](C)NC1=O)[C@@H](C)O` (single isomer, unassigned) [compound 26], the “caspase 0.3 μM” value [1] was 1, the “caspase 3 μM” value [1] was 1 and the “caspase 10 μM” value [1] was 3. The “caspase 30 μM” value [1] was 14, the “6.25 μM % Lysed cells (1 h LDH)” value [2] was 2% and the “25 μM % Lysed cells (1 h LDH)” value [2] was −1%. The “50 μM % Lysed cells (1 h LDH)” value [2] was 0%.

For `CC(=O)N[C@@H](CC(C)C)C(=O)N[C@H](C(=O)N[C@@H](Cc1ccccc1)C(=O)N[C@]1(C)CCCCCCC=CCCC[C@@](C)(C(=O)N[C@@H](C)C(=O)N[C@@H](Cc2c[nH]cn2)C(=O)N[C@@H](Cc2ccccc2)C(=O)N[C@@H](C)C(N)=O)NC(=O)[C@H](CC(C)C)NC(=O)[C@H](C)NC(=O)[C@H](C)NC(=O)[C@H](Cc2c[nH]c3ccccc23)NC(=O)[C@H](Cc2ccc(O)cc2)NC(=O)[C@H](C)NC1=O)[C@@H](C)O` [compound 204] (Ac-LTF[R8]AYWAAL[S5]AHFA-NH2; staple 4-11), the “caspase 0.3 μM” value [1] was 1, the “caspase 3 μM” value [1] was 4 and the “caspase 10 μM” value [1] was 10. For the same compound, the “caspase 30 μM” value [1] was 10, the “6.25 μM % Lysed cells (1 h LDH)” value [2] was 4% and the “25 μM % Lysed cells (1 h LDH)” value [2] was 2%. For the same compound, the “50 μM % Lysed cells (1 h LDH)” value [2] was 0%.
